Measured values from PubChem BioAssay AID248 (DTP/NCI, 2004).
Several values for one entry are separate records, joined by “and”; a condition that tells them apart may be missing. Identical values can stand only once. Toxic doses and inconclusive results are not listed. Rule as the data show it: active = T/C of 150% or more; inactive = T/C below 125%.

System: L1210 leukemia ip in BDF1 mice, survival T/C
Test: NCI In Vivo Anticancer Drug Screen. Data for tumor model L1210 Leukemia (intraperitoneal) in B6D2F1 (BDF1) mice
Conditions: endpoint: mean survival time, higher = longer survival
Procedure, shortened: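 Each compound was tested against a transplantable tumor grown in mice. The endpoint was survival, with treated animals benchmarked against vehicle controls as a simple ratio.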

[1] = dose: 50.0 mg/kg/injection, schedule: Q01DX001 (ip), vehicle: Klucel (hydroxypropylcellulose) (HPC)
[2] = dose: 100.0 mg/kg/injection, schedule: Q01DX001 (ip), vehicle: Klucel (hydroxypropylcellulose) (HPC)
[3] = dose: 100.0 mg/kg/injection, schedule: Q04DX003 (ip), vehicle: Klucel (hydroxypropylcellulose) (HPC)
[4] = dose: 200.0 mg/kg/injection, schedule: Q01DX001 (ip), vehicle: Klucel (hydroxypropylcellulose) (HPC)
[5] = dose: 200.0 mg/kg/injection, schedule: Q04DX003 (ip), vehicle: Klucel (hydroxypropylcellulose) (HPC)
[6] = dose: 400.0 mg/kg/injection, schedule: Q04DX003 (ip), vehicle: Klucel (hydroxypropylcellulose) (HPC)
[7] = dose: 50.0 mg/kg/injection, schedule: Q01DX001 (ip), vehicle: carboxymethylcellulose (CMC)
[8] = dose: 100.0 mg/kg/injection, schedule: Q01DX001 (ip), vehicle: carboxymethylcellulose (CMC)
[9] = dose: 200.0 mg/kg/injection, schedule: Q01DX001 (ip), vehicle: carboxymethylcellulose (CMC)
[10] = dose: 400.0 mg/kg/injection, schedule: Q01DX001 (ip), vehicle: carboxymethylcellulose (CMC)

Measured: T/C

Cc1c2cc3c(c1O)C(=O)CC(O3)c1ccc(O)c(c1)-c1ccc(O)c(c1)C(=O)OCC1OC(O2)C(O)C(O)C1O (stereo not drawn)
inactive: dose: 0.13 mg/kg/injection, schedule: Q01DX009 (ip), vehicle: Klucel (hydroxypropylcellulose) (HPC) 98 % of control | dose: 0.25 mg/kg/injection, schedule: Q01DX009 (ip), vehicle: Klucel (hydroxypropylcellulose) (HPC) 95 % of control | dose: 0.5 mg/kg/injection, schedule: Q01DX009 (ip), vehicle: Klucel (hydroxypropylcellulose) (HPC) 101 % of control | dose: 1.0 mg/kg/injection, schedule: Q01DX009 (ip), vehicle: Klucel (hydroxypropylcellulose) (HPC) 114 % of control

ClC(Cl)(Cl)c1ccn(-c2ccccc2)n1
inactive: dose: 25.0 mg/kg/injection, schedule: Q01DX001 (ip), vehicle: Klucel (hydroxypropylcellulose) (HPC) 110 % of control | [1] 100 % of control | [2] 101 % of control and 110 % of control

CC(=O)N(C=C(C#N)C#N)c1ccccc1
inactive: [2] 104 % of control | [3] 108 % of control | [4] 106 % of control | [5] 96 % of control | [6] 116 % of control

O=C1C=C(Nc2ccc(S(=O)(=O)N(CCCl)CCCl)cc2)c2ccccc2C1=O
inactive: dose: 100.0 mg/kg/injection, schedule: Q01DX009 (ip), vehicle: Klucel (hydroxypropylcellulose) (HPC) 97 % of control | dose: 200.0 mg/kg/injection, schedule: Q01DX009 (ip), vehicle: Klucel (hydroxypropylcellulose) (HPC) 100 % of control | dose: 400.0 mg/kg/injection, schedule: Q01DX009 (ip), vehicle: Klucel (hydroxypropylcellulose) (HPC) 102 % of control

C=CCNC(=O)C(Br)(CC)CC
inactive: dose: 100.0 mg/kg/injection, schedule: Q01DX009 (ip), vehicle: saline 92 % of control | dose: 100.0 mg/kg/injection, schedule: Q04DX003 (ip), vehicle: saline 96 % of control | dose: 200.0 mg/kg/injection, schedule: Q01DX009 (ip), vehicle: saline 92 % of control | dose: 200.0 mg/kg/injection, schedule: Q04DX003 (ip), vehicle: saline 96 % of control

CCCN(CCC)N=Nc1ccccc1-c1nc(N)nc(N)n1
inactive: [3] 101 % of control | [5] 119 % of control | [6] 109 % of control

C1CCC2[N-]CC3CCCCC3[N-]CC3CCCCC3[N-]CC3CCCCC3[N-]CC2C1.[Cl][Fe]([Cl])([Cl])[Cl].[Fe+6] (stereo not drawn)
inactive: dose: 12.5 mg/kg/injection, schedule: Q04DX002 (ip), vehicle: Klucel (hydroxypropylcellulose) (HPC) 102 % of control | dose: 25.0 mg/kg/injection, schedule: Q04DX002 (ip), vehicle: Klucel (hydroxypropylcellulose) (HPC) 102 % of control | dose: 50.0 mg/kg/injection, schedule: Q04DX002 (ip), vehicle: Klucel (hydroxypropylcellulose) (HPC) 94 % of control

COC1OCC(NC(C)=O)C(OC(C)=O)C1OC(C)=O (stereo not drawn)
inactive: dose: 50.0 mg/kg/injection, schedule: Q01DX001 (sc), vehicle: saline 104 % of control | dose: 100.0 mg/kg/injection, schedule: Q01DX001 (sc), vehicle: saline 101 % of control | dose: 200.0 mg/kg/injection, schedule: Q01DX001 (sc), vehicle: saline 111 % of control | dose: 400.0 mg/kg/injection, schedule: Q01DX001 (sc), vehicle: saline 95 % of control

NNC(=O)c1ccc(N)cc1
inactive: [7] 95 % of control | dose: 50.0 mg/kg/injection, schedule: Q01DX009 (ip), vehicle: saline with Tween-80 93 % of control | [8] 86 % of control | dose: 100.0 mg/kg/injection, schedule: Q01DX009 (ip), vehicle: saline with Tween-80 104 % of control | [9] 95 % of control | dose: 200.0 mg/kg/injection, schedule: Q01DX009 (ip), vehicle: saline with Tween-80 100 % of control | [10] 103 % of control

O=C(NC(=O)c1ccc([N+](=O)[O-])cc1)OCCCl
inactive: [2] 92 % of control | [4] 97 % of control | dose: 400.0 mg/kg/injection, schedule: Q01DX001 (ip), vehicle: Klucel (hydroxypropylcellulose) (HPC) 105 % of control

Cc1cc(C)c([N+](=O)[O-])cc1N
inactive: [1] 101 % of control | [2] 98 % of control | [4] 93 % of control

Cc1[nH]c2ccccc2c1/C=C/c1c[nH]c2ccccc12
inactive: [7] 93 % of control | [8] 91 % of control | [9] 98 % of control | [10] 91 % of control

COC(=O)C1OC(n2cnc3c(=S)nc[nH]c32)C(OC(C)=O)C(OC(C)=O)C1OC(C)=O (stereo not drawn)
inactive: [7] 103 % of control | [8] 100 % of control | [9] 100 % of control | [10] 94 % of control

CCCCCNC(=O)CCCC
inactive: [8] 103 % of control | dose: 100.0 mg/kg/injection, schedule: Q01DX009 (ip), vehicle: carboxymethylcellulose (CMC) 97 % of control and 108 % of control | dose: 100.0 mg/kg/injection, schedule: Q04DX002 (ip), vehicle: carboxymethylcellulose (CMC) 97 % of control | dose: 100.0 mg/kg/injection, schedule: Q04DX003 (ip), vehicle: carboxymethylcellulose (CMC) 101 % of control | [9] 104 % of control | dose: 200.0 mg/kg/injection, schedule: Q01DX009 (ip), vehicle: carboxymethylcellulose (CMC) 101 % of control and 103 % of control | dose: 200.0 mg/kg/injection, schedule: Q04DX002 (ip), vehicle: carboxymethylcellulose (CMC) 97 % of control | dose: 200.0 mg/kg/injection, schedule: Q04DX003 (ip), vehicle: carboxymethylcellulose (CMC) 97 % of control | dose: 400.0 mg/kg/injection, schedule: Q04DX002 (ip), vehicle: carboxymethylcellulose (CMC) 97 % of control | dose: 400.0 mg/kg/injection, schedule: Q04DX003 (ip), vehicle: carboxymethylcellulose (CMC) 94 % of control

CCNC(=S)NC1CCCCCCCCCCC1
inactive: dose: 100.0 mg/kg/injection, schedule: Q04DX002 (ip), vehicle: saline with Tween-80 94 % of control | dose: 200.0 mg/kg/injection, schedule: Q04DX002 (ip), vehicle: saline with Tween-80 87 % of control

CC(C)CC(=O)Nc1ccccc1
inactive: [3] 105 % of control | dose: 100.0 mg/kg/injection, schedule: Q04DX003 (ip), vehicle: other 98 % of control | [5] 101 % of control | dose: 200.0 mg/kg/injection, schedule: Q04DX003 (ip), vehicle: other 98 % of control | [6] 89 % of control | dose: 400.0 mg/kg/injection, schedule: Q04DX003 (ip), vehicle: other 89 % of control
